Legend:
BLT2 [1] = biological target: T1, BLT2 (Homo sapiens, UniProt Q9NPC1); experiment: LTB4-induced chemotactic motility, Transwell, CHO-BLT2 cells; format: cell-based; conditions: LTB4 300 nM
T1 construct: HA; expressed in transfected cells
T1 sequence (Q9NPC1 with tags, fused parts or gaps): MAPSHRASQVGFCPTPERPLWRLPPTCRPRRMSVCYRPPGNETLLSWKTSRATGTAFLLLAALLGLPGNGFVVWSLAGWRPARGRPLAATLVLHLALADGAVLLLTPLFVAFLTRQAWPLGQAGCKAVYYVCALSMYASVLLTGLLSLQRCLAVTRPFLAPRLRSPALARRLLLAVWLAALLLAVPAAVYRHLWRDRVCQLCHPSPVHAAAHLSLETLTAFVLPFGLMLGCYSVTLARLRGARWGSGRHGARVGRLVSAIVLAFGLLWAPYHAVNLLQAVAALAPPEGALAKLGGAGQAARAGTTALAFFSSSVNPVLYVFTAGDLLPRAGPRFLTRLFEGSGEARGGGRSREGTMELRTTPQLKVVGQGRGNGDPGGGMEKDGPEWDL
Protocol: Chemotactic motility was analyzed using a Transwell chamber including a polycarbonate filter (8-μm pore size, Corning Costar) with a 6.5-mm diameter. Specifically, the lower surface of the filter was coated with 10 μg/mL fibronectin in a serum-free RPMI 1640 medium at 37° C. for 1 hour. The experiment was performed by placing the filter dried and coated with RPMI 1640 media containing various amounts of LTB4 in the lower wells of the Transwell chamber, and loading CHO cells stably expressing BLT1 and BLT2 into the upper wells containing serum-free RPMI 1640 media finally at 2×10^4 cells/100 μL. To evaluate the effect of inhibitors, the cells were pre-treated with each inhibitor for 30 minutes before dispensing. After the cells were cultured at 37° C. in 5% CO2 for 3 hours, the filters were fixed with methanol for 3 minutes, and stained with hematoxylin and eosin for 10 minutes. In the experiment, the cells were BLT2-expressing cells (CHO-BLT2 cells) and BLT1-expressing cells (CHO-BLT1 cells), and LY255283 and U75302 were used as positive controls for each type of the cells, and BLT2 ligand LTB4, (300 nM), BLT1 ligand LTB4 (10 nM), and lysophosphatidic acid (LPA; 100 nM) were used as comparative controls. The chemotactic motility was quantitatively analyzed by counting the cells on the lower side of the filter under an optical microscope (magnification, 200×). For each analysis, 6 fields were subjected to counting, each sample was analyzed twice, and the analysis was repeated three times.

BLT2 [2] = biological target: T1, BLT2; experiment: [3H]LTB4 and BLT2 binding inhibition, CHO-BLT2 cell membrane proteins; conditions: [3H]LTB4 5 nM
Protocol: The inhibition of LTB4 and BLT2 binding (ligand binding affinity) was analyzed using radioactive tritium (^3H)-labeled LTB4 ([^3H]LTB4, ARC; specific activity 160.0 Ci/mmol). After 2×10^6 of CHO-BLT2 cells were plated into a 100-mm culture dish and cultured for 48 hours, an experimental method was carried out as follows: Collected cells were treated using a homogenizer a total of five times for 1 minute each to separate proteins of the cell membrane. Afterward, the cells were subjected to centrifugation at 4° C. and 45,000 rpm for 40 minutes to only collect the proteins of the cell membrane, and thereby, a protein concentration of 40 μg/45 μL was quantified. When a BLT2-containing cell membrane proteins which were quantified in the same manner was treated with the same amount of [^3H]LTB4 (5 nM), and then a different concentration (10^−9, 10^−8, 10^−7, 10^−6 or 10^−5 M) of a compound, a degree of inhibiting the tritium-labeled LTB4 and BLT2 binding was measured using a Hidex 300sL liquid scintillation counter.

MDA-MB-231 cells = experiment: IL-8 expression (RT-PCR); format: cell-based
Protocol: (§1) The breast cancer cells such as the MDA-MB-231 cells were obtained from Korean Cell Line Bank (Seoul, Korea), and the MDA-MB-435 cells were provided by J. H. Lee (Asan Medical Center, Seoul, Korea). These cells were cultured in an RPMI 1640 medium (Invitrogen) containing 10% FBS (Life Technologies, Inc.), 1% penicillin (50 units/mL), and an antibiotic antimycotic solution (Life Technologies, Inc.) at 37° C. under a 5% CO2 condition.
(§2) To confirm the IL-8 expression according to the treatment of the compound of the present invention, total RNA was isolated from cells using Easy Blue (Intron, Sungnam, Korea), and quantified by absorbance at 260 nm. Complementary DNA (cDNA) was synthesized with the RNA (1.25 μg) through reverse transcription using a polymerase chain reaction (PCR) technique. An expression level was determined using primers specifically binding to IL-8 and glyceraldehyde-3-phosphate dehydrogenase (GAPDH).

MDA-MB-435 cells = experiment: IL-8 expression (RT-PCR); format: cell-based
Protocol: as §1, §2

[3] = tested on: severe asthma-induced mice; experiment: OVA-induced asthma mice: AHR and IL-4; format: in vivo; conditions: pre-treated at 10 μM (so in the source)
Description: Mast cells play a pivotal role in the initial reaction to asthma, and when an allergen enters the body from the outside through an airway, the mast cells are activated, thereby secreting various cytokines (interleukin-4 and interleukin-13). Due to the cytokines, the influx of inflammatory cells, the generation of mucus and the airway contraction occur. The inventors used 7-week-old (18 to 20 g) female BALB/c mice provided by Orient (Seoungnam, Korea) for the experiment to confirm the antiasthma effect, and then the asthma was induced in the mice. […] On the 24th day of the initial sensitization, airway hyperresponsiveness (AHR) was detected, and on the 25th day, the mice were dissected to observe asthma phenotypes, for example, inflammatory cytokine IL-4 expression and the influx of inflammatory cells (neutrophils). […] On the 23rd day of the initial sensitization, AHR was detected, and on the 24th day, the mice were dissected to observe a severe asthma phenotype, for example, the influx of the inflammatory cells (neutrophils). […] The AHR was analyzed using an enhanced pause as the indicator of the asthma phenomenon. Bronchoalveolar lavage fluid cell counts were quantified by counting cells under an optical microscope (magnification, 200×). In each analysis, 4 fields were subjected to counting, each sample was analyzed twice, and the analysis was repeated three times.

CCCCC(=O)N(CC#Cc1ccc(C(=O)N2CCN(C(C)C)CC2)cc1)c1ccccc1 [LMT-696, N-(3-(4-(4-isopropylpiperazine-1-carbonyl)phenyl)prop-2-ynyl)-N-phenylpentaneamide] gave an inhibition at 10 µM (BLT2 [1]; 10 μM pre-treatment, read-out: chemotactic motility inhibited compared with LTB4 (DMSO+)) of 70.3%, an IC50 (BLT2 [1]; serum-free, read-out: IC50 of chemotactic motility inhibition) of 2000 nM and an IC50 (BLT2 [2]) of 5.6 nM. The IL-8 expression level (MDA-MB-231 cells) was “significantly inhibited”, the IL-8 expression level (MDA-MB-435 cells) was “significantly inhibited” and the AHR reduced ([3]; airway constrictor 50 mg/ml) was 70%. For the same compound, the “generation of IL-4 reduced” value ([3]; cells isolated from the abdominal cavity of the mice) was 70%.

— patent publication US10766857B2, “Compound having BLT inhibitory activity and composition, for preventing or treating inflammatory diseases, comprising same as active ingredient” (DONGGUK UNIVERSITY INDUSTRY-ACADEMIC COOPERATION FOUNDATION, priority 2015, dated 2020)
